# Test results from PubChem BioAssay AID1996.
# Details: buffer; pH 7.4; 200.0 µM
row,Structure (SMILES),solubility kinetic
1,CCc1nccn1S(=O)(=O)c1ccccc1[N+](=O)[O-],> 42.2 µg/mL
2,CCOC(=O)c1sc(NC(=O)CN2CC(C)OC(C)C2)nc1C (stereo not given),49 µg/mL
3,CCC(=O)N1CC(=O)Nc2ccc(F)cc2C1c1ccc(F)cc1 (stereo not given),> 49.6 µg/mL
4,O=C(CC1Sc2ccccc2NC1=O)NCc1ccc(Cl)cc1 (stereo not given),< 0.4 µg/mL
5,O=C(/C=C/c1ccco1)N1CCN(S(=O)(=O)c2cccc([N+](=O)[O-])c2)CC1,28.1 µg/mL
6,CC(C)Cc1nc2ccccc2[nH]1,> 26.1 µg/mL
7,O=c1nccc(N/N=C/c2cccc(O)c2)[nH]1,> 34.5 µg/mL
8,COc1ccc(C(=O)NCC2(c3ccccc3)CCOCC2)cc1,47.1 µg/mL
9,Cc1ccc2c(c1)c1c3n2CCN(CC(N)=O)C3CCC1 (stereo not given),1.7 µg/mL
10,Cc1cc(C)cc(N2C(=O)C3CCCN3C2=S)c1 (stereo not given),> 39.1 µg/mL
11,O=C(NC1CCCCC1)c1ccc(-c2ccccc2F)o1,5 µg/mL
12,CC(C)(C)NC(=O)NC(=O)CN1CCCCC1,> 36.2 µg/mL
13,Cc1ccc([N+](=O)[O-])cc1NC(=O)/C=C/C(=O)O,> 37.5 µg/mL
14,CCOC(=O)c1sc(=NC(=O)c2cccc(C)c2)n(C)c1C,0.7 µg/mL
15,Cc1cc(F)ccc1NC(=S)NC1CCCC1,37.2 µg/mL
16,COc1ccccc1N1CCN(C(=O)CCc2ccccc2)CC1,> 48.7 µg/mL
17,COC(=O)c1cc(OC(=O)c2ccc(=O)[nH]c2)cc(C(=O)OC)c1,12.6 µg/mL

row,Structure (SMILES),solubility kinetic
1,COc1ccc(NC(=O)C2C3CCC(O3)C2C(=O)O)c(C)c1 (stereo not given),45.4 µg/mL
2,CC1CCCC(C)N1S(=O)(=O)c1ccc(Cl)cc1 (stereo not given),2.7 µg/mL
3,Cc1ccc(NC2CCCN(C(=O)c3cccnc3)C2)cc1C (stereo not given),> 46.4 µg/mL
4,Cc1cc(Cl)nc(-c2ccccc2)n1,0.3 µg/mL
5,CCOc1ccc2c(c1)c(C(C)=O)c(C)n2Cc1ccco1,< 0.6 µg/mL
6,O=C(Cc1ccc(Br)cc1)N1CCc2ccccc2C1,3.9 µg/mL
7,CCOc1ccc(CCNC(=O)COC(=O)c2ccc[nH]c2=O)cc1OCC,> 58.3 µg/mL
8,Cc1ccccc1NC(=S)N1CCN(c2ccccc2)CC1,0.6 µg/mL
9,N#CCc1ccc(Oc2ccc([N+](=O)[O-])cn2)cc1,35.6 µg/mL
10,Cc1ccc(C(=O)NCCCNC(=O)c2ccccn2)cc1,> 44.6 µg/mL
11,Cc1cccc(-n2c(=S)[nH]c3ccccc3c2=O)n1,> 40.4 µg/mL
12,O=C(O)CN1C(=O)C(=O)N(Cc2ccc(C(F)(F)F)cc2)C1=O,> 49.5 µg/mL
13,C=CCSc1nc2ccccc2c(=O)n1C1CCOC(C)(C)C1 (stereo not given),8.6 µg/mL
14,Cc1nccc(-c2cc(-c3ccc(Cl)cc3Cl)no2)n1,< 0.2 µg/mL
15,COc1ccc(OC)c(NC(=O)CCc2c[nH]c3ccccc23)c1,10.9 µg/mL
16,CN(Cc1cccs1)C(=O)c1ccc(Cl)c(S(=O)(=O)N2CCCCCC2)c1,14.1 µg/mL
17,Cc1ccc(C)c(OC(=O)CN2C(=O)c3ccccc3C2=O)c1,4 µg/mL

# Further lines, results first:
row,solubility kinetic,Structure (SMILES)
1,> 55.2 µg/mL,CC(C)OCCCNC(=O)CN1CCN(Cc2ccc(Cl)cc2)C1=O
2,7.8 µg/mL,O=C(CN1C(=O)S/C(=C\C=C\c2ccccc2)C1=O)N1CCOCC1
3,> 45.9 µg/mL,Cc1ccc(/C(=N/Nc2ncnc3ccccc23)C(=O)O)cc1
4,> 46.2 µg/mL,COCCOC(=O)C1=C(C)NC(=O)NC1c1cccc(F)c1 (stereo not given)
5,< 0.2 µg/mL,Cc1nc(Sc2ccc(Cl)cc2)c(C#N)c(C)c1[N+](=O)[O-]
6,> 68.8 µg/mL,O=[N+]([O-])c1ccc(Cl)c(S(=O)(=O)Nc2cccc(S(=O)(=O)NC3=NCCC3)c2)c1
7,> 52.6 µg/mL,COc1ccc(Nc2nnc(SC(C)C(=O)NC3CC3)s2)cc1 (stereo not given)
8,35.9 µg/mL,COc1ccc(/C(N)=N/OC(=O)c2cccs2)cc1
9,12.1 µg/mL,CSc1ncc(C(=O)Nc2ccc(C)cc2C)c(C)n1
10,> 43.9 µg/mL,CC(NC(=O)CCc1c[nH]c2ccccc12)c1ccccc1 (stereo not given)
11,3.6 µg/mL,CC(NC(=O)/C(C#N)=C/c1cccs1)c1ccccc1 (stereo not given)
12,38.6 µg/mL,C=CCn1c(SCC(N)=O)nc2sc3c(c2c1=O)CCC3
13,< 0.7 µg/mL,Cc1cc2c(cc1C)C(c1ccccc1OC(C)C)CC(=O)N2 (stereo not given)
14,> 53 µg/mL,CCOc1ccccc1N1CCN(C(=O)NCc2ccc(C)cc2)CC1
15,1.9 µg/mL,O=C(Nc1nc2ccc([N+](=O)[O-])cc2s1)c1ccncc1
16,14.8 µg/mL,COc1ccccc1NC(=S)NCc1ccccc1
17,26.9 µg/mL,COc1cc(OC)cc(/C(N)=N/O)c1
18,> 47.9 µg/mL,CCOc1ccccc1C(=O)OCC(=O)NCC1CCCCC1
19,> 81.7 µg/mL,Cc1noc(NS(=O)(=O)c2ccc(NC(=O)c3ccccc3NS(=O)(=O)c3ccc(F)cc3)cc2)c1C
20,> 56.9 µg/mL,C[C@@H](C(=O)OCC(=O)c1ccc(F)c(F)c1)N1C(=O)C2CCCCC2C1=O (stereo not given in full)
21,> 51.7 µg/mL,COC(=O)CC1=NN(c2nc3ccccc3s2)C(=O)/C1=C/N(C)C
22,10.3 µg/mL,Cc1cc(C(=O)NC2CCCc3ccccc32)ccc1[N+](=O)[O-] (stereo not given)
23,1.9 µg/mL,CCOc1ccc2[nH]cc(C(=O)NCc3ccc(F)cc3)c(=O)c2c1
24,> 66.3 µg/mL,CS(=O)(=O)c1ccc(Cl)c(NC(=O)CN2CCN(C(=O)c3cccs3)CC2)c1
25,50.3 µg/mL,O=C(Cc1ccc(O)cc1)NCCNC(=S)NCc1ccccc1
26,> 47.7 µg/mL,CC(C)NC(=O)COCc1cc(-c2ccc3c(c2)OCO3)on1

row,solubility kinetic,Structure (SMILES)
1,> 42.1 µg/mL,CC1c2ccccc2N(NC(=O)Cc2ccccc2)C1C (stereo not given)
2,> 38 µg/mL,CCOC(=O)C1=C(O)C(=O)N(C2CCCCC2)C1
3,> 50.1 µg/mL,COc1ccccc1NC(=O)COC(=O)c1[nH]c(=O)[nH]c(=O)c1N
4,28.8 µg/mL,O=C(c1ccccn1)c1ccc2ccccc2n1
5,> 21.5 µg/mL,Cl.NCc1ccccc1
6,10.8 µg/mL,CCc1noc(C)c1C(=O)OCC(=O)Nc1ccc(F)cc1Cl
7,> 48.9 µg/mL,O=C(CCN1C(=O)c2ccccc2C1=O)NCc1ccc(F)cc1
8,> 47.1 µg/mL,O=C(Cn1cc([N+](=O)[O-])cn1)NCCc1nc2ccccc2[nH]1
9,> 46.7 µg/mL,O=C(c1ccc(F)cc1)C1CCN(C(=O)c2ccccc2)CC1
10,38.6 µg/mL,CC(=O)C(Sc1ncnc2sc3c(c12)CCCC3)C(C)=O
11,15.1 µg/mL,COc1ccccc1C(=O)NCCSCc1ccccc1Cl
12,0.5 µg/mL,CCC1CN(C(=O)NCc2ccc(C)cc2)c2cc(C)ccc2O1 (stereo not given)
13,32.4 µg/mL,CSc1nsc(SCC(=O)Nc2ccccc2)n1
14,> 46.1 µg/mL,COc1ccc(-c2noc(=O)n2Cc2ccc(C#N)cc2)cc1
15,> 38.4 µg/mL,Cn1cnc2c1c(=O)[nH]c(=O)n2Cc1ccccc1
16,20.9 µg/mL,Cc1cccc(OCCn2ccnc2)c1
17,0.2 µg/mL,O=[N+]([O-])c1cc([N+](=O)[O-])c2cc3ccccc3nc2c1
18,> 45.5 µg/mL,O=c1c(Cc2ccc(F)cc2)c(O)ccn1CC1CCCO1 (stereo not given)
19,> 58.3 µg/mL,Cn1c(SCC(=O)NCC2COc3ccccc3O2)nnc1C(F)(F)F (stereo not given)
20,> 40.1 µg/mL,CCOC(=O)CNC(=O)c1ccc(SCC)cc1
21,41.6 µg/mL,COc1ccc(OC)c(S(=O)(=O)NCCCn2ccnc2)c1
22,> 52 µg/mL,CC(=O)c1cccc(NC(=O)CN(C)S(=O)(=O)c2ccccc2)c1
23,23.8 µg/mL,O=C(NCCN1CCOCC1)c1cc(-c2ccc(F)cc2)nc2ccccc12
24,> 49.7 µg/mL,O=C1OCCC1Sc1nnc(-c2ccc(Cl)cc2Cl)o1 (stereo not given)
25,> 48.5 µg/mL,OCCCNC(=S)Nc1ccc(Br)cc1Cl
